The record followed here is PubChem BioAssay AID1996.

Molecules are shown by their SMILES. Converted amounts (≈) assume the structure as drawn.

The conditions of this data set: buffer; pH 7.4; 200.0 µM.
As a reminder, the kinetic solubility is the concentration staying in solution when a stock, usually in DMSO, is diluted into the medium. In the case of `COc1ccc(NC(=O)COC(=O)C23CC4CC(CC(NC(C)=O)(C4)C2)C3)cc1S(=O)(=O)N1CCOCC1`, the kinetic solubility is over 82.4 µg/mL. Consider `CSc1ccc(CN2CCN(C(=O)Cc3ccccc3)CC2)cc1`, for which the kinetic solubility was determined as 28.9 µg/mL (≈ 84.9 µM). Compound `CC1CCc2c(sc(/N=C/c3cccnc3)c2C(N)=O)C1` (configuration not stated) registered a solubility (kinetic) of 26.8 µg/mL (≈ 89.5 µM). This solubility kinetic and that of the compound before are within 1.5-fold of each other. Consider `Cc1cc(OCC(O)CN2CCOCC2)cc(C)c1Cl.Cl` (configuration not stated), for which the solubility (kinetic) worked out at 45.2 µg/mL. This solubility kinetic lies about 1.7-fold higher than the previous one. As for `Cc1csc(=O)n1CC(=O)Nc1nc2ccccc2s1`, the kinetic solubility is over 45.8 µg/mL. The compound `Cc1oc(S(=O)(=O)N2CCCC2)cc1C(=O)Nc1ccccc1` displayed a kinetic solubility of 4.3 µg/mL (≈ 12.9 µM). As to `Cc1ccc(OCC(O)CN2CCOCC2)cc1C.Cl` (configuration not stated), the kinetic solubility is over 45.3 µg/mL. The value for `Cc1cc(N2CCCC2)c(F)cc1/C=C\[N+](=O)[O-]` was 0.4 µg/mL (≈ 1.6 µM); that for `CCN(CC)C(=O)CSC(Nc1ccc(F)cc1)=C(C#N)C#N` was over 49.9 µg/mL.

`Cc1nc2ccccc2n1C(C)c1ccccc1` (configuration not stated) had a solubility (kinetic) of over 35.4 µg/mL. The value for `CC(CCc1ccccc1)NC(=O)CSc1ccccn1` (configuration not stated) was 34.6 µg/mL (≈ 115 µM).

In turn, `Nn1c(SCC(=O)NC2CCCCCC2)nnc1C(F)(F)F` gave a solubility (kinetic) of over 50.6 µg/mL. In turn, `O=C(OCC(=O)N1CCN(C(=O)c2ccco2)CC1)c1cc(F)c(F)cc1Cl` registered a solubility (kinetic) of over 61.9 µg/mL. The value for `Nc1nc2ncc(C(=O)c3cc(F)ccc3O)cc2s1` was 7 µg/mL (≈ 24.2 µM); that for `COc1ccc(CNC(=S)NC2CCCCC2)cc1` was 38.4 µg/mL (≈ 138 µM). The value for `O=C(c1cc(-c2cccc(Cl)c2)on1)N1CCOCC1` was 20.1 µg/mL (≈ 68.7 µM). Next, `N#CC(C#N)=Cc1c[nH]c(=O)c(C#N)c1Nc1ccccc1`: over 43.1 µg/mL; `COc1cccc(NC(=O)CCN2C(=O)C3CC=CCC3C2=O)c1` (configuration not stated): over 49.3 µg/mL; `FC(F)(F)c1cccc(CN2CCN(c3ncccn3)CC2)c1`: 8.7 µg/mL (≈ 27 µM).

`N#Cc1ccc(OCC(=O)NNC(=S)NC(=O)C2CC2)cc1` gave a solubility (kinetic) of over 47.8 µg/mL. On to `CCOC(=O)C1CCCN(CCc2ccccc2)C1` (configuration not stated), for which the kinetic solubility was 32.1 µg/mL (≈ 123 µM).

Turning to `CC(C)Oc1ccc(C(=O)NC2=NCCS2)cc1`, the solubility (kinetic) is 23.1 µg/mL (≈ 87.4 µM). This solubility kinetic and that of the compound before are within 1.5-fold of each other. Compound `CC1CN(S(=O)(=O)c2cccc(C(=O)OCC(=O)N3CCCCCC3)c2)CC(C)O1` (configuration not stated) yielded a kinetic solubility of 12.9 µg/mL (≈ 29.4 µM). `Cc1nc2ccccc2c2ncccc12` registered a kinetic solubility of 22.4 µg/mL (≈ 115 µM). Compared with the last compound, the solubility kinetic is about 1.7-fold higher. The value for `O=[N+]([O-])c1ccccc1/C=C/CN1CCC(O)CC1` was 29.2 µg/mL (≈ 111 µM); that for `Clc1ccccc1C1CC(c2ccccc2)=Nc2ccccc2N1` (configuration not stated) was 1.2 µg/mL (≈ 3.61 µM); that for `Nc1nc(-c2ccc(NC(=O)c3ccco3)cc2)cs1` was over 42.8 µg/mL. Next, `CN1C2=C(C(=O)CC(C)(C)C2)C(c2cccs2)C2=C1CC(C)(C)CC2=O`: 32.6 µg/mL (≈ 88.2 µM); `O=c1c2ccccc2nc(Cc2cccc([N+](=O)[O-])c2)n1-c1ccc(O)cc1`: 47.8 µg/mL (≈ 128 µM); `CCOC(=O)c1ccc(NC2=CC(=O)CC(c3ccco3)C2)cc1` (configuration not stated): 9.6 µg/mL (≈ 29.5 µM). The value for `COc1cc([N+](=O)[O-])ccc1NC(=O)Nc1cccnc1` was 1 µg/mL (≈ 3.47 µM).

As to `CC1(NC(=O)Cc2c(F)cccc2Cl)CCS(=O)(=O)C1` (configuration not stated), the kinetic solubility was over 48 µg/mL. The value for `O=C(O)CC(NC(=O)Cc1ccccc1)c1ccccc1` (configuration not stated) was 27.4 µg/mL (≈ 96.7 µM). `COc1ccc(NC(=O)c2cccc(Cl)c2)c[n+]1[O-]` displayed a solubility (kinetic) of over 41.8 µg/mL. Next, `O=C(NC(=S)N1CCCC1)c1ccc(Cl)cc1`: 35.4 µg/mL (≈ 132 µM); `CCc1sc(C(=O)NCc2ccccc2)cc1C`: 28.7 µg/mL (≈ 111 µM).

For the compound `Cc1ccc(S(=O)(=O)N2CCOCC2)cc1C(=O)OCC(=O)N1CCCC1=O`, the solubility (kinetic) was over 61.6 µg/mL. Next, `O=C(NC1CC1)c1ccc(NS(=O)(=O)c2ccccc2)cc1`: over 47.5 µg/mL; `CC1CCCC(C)N1CC(O)COC1CCC(C(C)(C)C)CC1.Cl` (configuration not stated): 46.9 µg/mL; `CCC(C)NC(=O)COc1ccc(OCc2ccccc2)cc1` (configuration not stated): 4.8 µg/mL (≈ 15.3 µM). The value for `CCN(CC)S(=O)(=O)c1ccc(C(=O)NC2=NCCS2)cc1` was 2.3 µg/mL (≈ 6.74 µM); that for `Cc1ccc2oc(C(=O)N3CCN(CCO)CC3)c(C)c2c1` was over 45.4 µg/mL; that for `COc1ccccc1NC(=O)CCSc1nc(C)cs1` was over 46.3 µg/mL. The value for `Nc1ccc(C(=O)NCc2ccccc2)cc1` was over 33.9 µg/mL; that for `c1coc(CSc2ncnc3c2oc2ccccc23)c1` was 0.9 µg/mL (≈ 3.19 µM); that for `COc1ccc(-c2nc(N)ncc2-c2ccc(OC)c(OC)c2)c(O)c1` was 1 µg/mL (≈ 2.83 µM). Turning to `N#CC1=C(S)N(c2ccccc2)C(c2ccco2)NC1=O` (configuration not stated), the kinetic solubility came to 37 µg/mL (≈ 124 µM). Next, `CC(NC(=O)C12CC3CC(C)(CC(C)(C3)C1)C2)c1ccncc1` (configuration not stated): 41.9 µg/mL (≈ 134 µM); `Cc1ccc(-n2c(-c3ccccc3)c[nH]c2=S)cc1`: 0.6 µg/mL (≈ 2.25 µM). Take `Cc1cc(CNC(=O)c2cccnc2Cl)c2ccccc2n1`: the solubility (kinetic) is 39.1 µg/mL (≈ 125 µM). This solubility kinetic is about 65-fold higher than that of the compound before. The value for `O=C(COC(=O)c1cc[n+]([O-])cc1)Nc1ccc(Cl)cc1Cl` was over 51.2 µg/mL; that for `COc1ccc(C2c3ccc(O)cc3Oc3ncn(CCCO)c(=N)c32)cc1` (configuration not stated) was over 56.9 µg/mL.
